Measurements from patent US10300058B2, “Tyrosine kinase inhibitor and uses thereof” (Xuanzhu Pharma Co., Ltd., priority 2014, dated 2019).

Experiments:
[1] = tested on: A431 cell (wild-type EGFR gene); test: In vitro cytologic activity, Celltiter-Glo, A431 cells; format: cell-based; conditions: Homo sapiens, A-431, 72 h
Method: (§1) 1.1 Preparation of Cell Suspension
(§2) Culture medium was removed from culture bottle;
(§3) PBS was added to wash the cells; • pancreatin was added for digestion, and the cells were collected by centrifugation; • the cells were resuspended in a culture medium containing 10% fetal bovine serum, counted and adjusted to a concentration of 2×10^4/mL or 3×10^4/mL (cell viability must be greater than 90%); • the cell suspension was added to a 96-well plate, at 100 μL for each well, i.e., 2000/well for H1975 cell; 3000/well for A431 cell; and • the cells were cultured at 37° C. in 5% CO2 incubator overnight.
(§4) Dilution of a compound in DMSO (or water for injection) • (1) The compound was 5-fold diluted with DMSO from 10 mM to 2 mM, and then 4-fold diluted from 2 mM, to get 10 concentrations; • High control (HC, control without compound inhibition): 0.5% DMSO; • Low control (LC, control with compound inhibition): 1000 nM.
(§5) i. To each well, 99 μL growth medium containing 10% FBS was added, and then 1 μL diluted compound was added, the total volume of the well was […], and the final concentration of the compound was measured.
(§6) The test plate was left at room temperature, and equilibrated for 30 min. 80 μL culture medium was discarded. 60 μL CTG reagent (Celltiter-Glo kit) was added, and shaked for 2 min in a fast shaker, and was placed at room temperature for 10 min. The values were read by Envision instrument.

[2] = target: EGFR T790M (Homo sapiens (Human), UniProt P00533, T790M); test: Mobility Shift Assay, in vitro enzyme-inhibiting activity, EGFR T790M; format: biochemical; conditions: for IC50: Km ATP; for Selectivity (WT/T790M): ratio of IC50
Method: (§7) 1. Preparation of Reagents
(§8) 2. Preparation of a Compound Solution
(§9) (1) To the second well of a 96-well plate, 5 μL 10 mM compound (dissolved in DMSO) was added, and 95 μL 100% DMSO was added to prepare 100 μL 0.5 mM compound.
(§10) (2) To other wells, 60 μL 100% DMSO was added. 20 μL compound from the second well was added to the third well, and 4-fold dilution was further performed to get 10 diluted concentrations.
(§11) (3) To the first well and the twelfth well of the 96-well plate, 100 μL 100% DMSO was separately added, and the two wells were used as control wells.
(§12) (4) 10 μL from each well of the 96-well plate was added to another 96-well plate, and 90 μL 1-fold kinase buffer was added.
(§13) (5) 5 μL from the 96-well plate was added to another 384-well plate, for example, transferred from A1 well of the 96-well plate to A1 and A2 wells of the 384-well plate, and transferred from A2 well of the 96-well plate to A3 and A4 wells of the 384-well plate, and so on.
(§14) To 384-well plate, 10 μL 2.5-fold enzyme solution was added, and incubated at room temperature for 10 min.
(§15) (5) Kinase reaction and stop
(§16) After incubation at 28° C. for a period of time (depending on kinase), 25 μL stop solution was added.
(§17) 4. Data on percent conversion was read by Caliper.
(§18) (1) Data on enzyme activity was obtained by Caliper program;
(§19) (2) Inhibition rate of enzyme activity was calculated from the data on enzyme activity by the following formula: Inhibition rate(%)=(maximal value−the measured value of a test compound)/(maximal value-minimal value)×100,
(§20) wherein, the maximal value represents the measured value of DMSO control; and the minimal value represents the measured value of blank control.
(§21) (3) Calculation of IC50 value by XLFit excel.

[3] = target: wild-type EGFR (WT EGFR) (Homo sapiens (Human), UniProt P00533); test: Mobility Shift Assay, in vitro enzyme-inhibiting activity, wild-type EGFR; format: biochemical; conditions: Km ATP
Method: as §7, §8, §9, §10, §11, §12, §13, §14, §15, §16, §17, §18, §19, §20, §21

[4] = tested on: H1975 cell (EGFR-T790M/L858R double mutation); test: In vitro cytologic activity, Celltiter-Glo, H1975 cells; format: cell-based, human; conditions: for IC50: Homo sapiens, NCI-H1975, 72 h, 72 h, Celltiter-Glo; for Selectivity (A431/H1975): ratio of IC50
Method: as §1, §2, §3, §4, §5, §6

[5] = target: EGFR L858R (Homo sapiens (Human), UniProt P00533, L858R); test: Mobility Shift Assay, in vitro enzyme-inhibiting activity, EGFR L858R; format: biochemical; conditions: Table 7
Method: as §7, §8, §9, §10, §11, §12, §13, §14, §15, §16, §17, §18, §19, §20, §21

[6] = target: EGFR (d746-750) (Homo sapiens (Human), UniProt P00533, DEL746-750); test: Mobility Shift Assay, in vitro enzyme-inhibiting activity, EGFR (d746-750); format: biochemical; conditions: Table 7
Method: as §7, §8, §9, §10, §11, §12, §13, §14, §15, §16, §17, §18, §19, §20, §21

[7] = target: EGFR T790M-L858R (Homo sapiens (Human), UniProt P00533, L858R/T790M); test: Mobility Shift Assay, in vitro enzyme-inhibiting activity, EGFR T790M-L858R; format: biochemical; conditions: Table 7
Method: as §7, §8, §9, §10, §11, §12, §13, §14, §15, §16, §17, §18, §19, §20, §21

Sequence of wild-type EGFR (WT EGFR) (P00533 25-1210): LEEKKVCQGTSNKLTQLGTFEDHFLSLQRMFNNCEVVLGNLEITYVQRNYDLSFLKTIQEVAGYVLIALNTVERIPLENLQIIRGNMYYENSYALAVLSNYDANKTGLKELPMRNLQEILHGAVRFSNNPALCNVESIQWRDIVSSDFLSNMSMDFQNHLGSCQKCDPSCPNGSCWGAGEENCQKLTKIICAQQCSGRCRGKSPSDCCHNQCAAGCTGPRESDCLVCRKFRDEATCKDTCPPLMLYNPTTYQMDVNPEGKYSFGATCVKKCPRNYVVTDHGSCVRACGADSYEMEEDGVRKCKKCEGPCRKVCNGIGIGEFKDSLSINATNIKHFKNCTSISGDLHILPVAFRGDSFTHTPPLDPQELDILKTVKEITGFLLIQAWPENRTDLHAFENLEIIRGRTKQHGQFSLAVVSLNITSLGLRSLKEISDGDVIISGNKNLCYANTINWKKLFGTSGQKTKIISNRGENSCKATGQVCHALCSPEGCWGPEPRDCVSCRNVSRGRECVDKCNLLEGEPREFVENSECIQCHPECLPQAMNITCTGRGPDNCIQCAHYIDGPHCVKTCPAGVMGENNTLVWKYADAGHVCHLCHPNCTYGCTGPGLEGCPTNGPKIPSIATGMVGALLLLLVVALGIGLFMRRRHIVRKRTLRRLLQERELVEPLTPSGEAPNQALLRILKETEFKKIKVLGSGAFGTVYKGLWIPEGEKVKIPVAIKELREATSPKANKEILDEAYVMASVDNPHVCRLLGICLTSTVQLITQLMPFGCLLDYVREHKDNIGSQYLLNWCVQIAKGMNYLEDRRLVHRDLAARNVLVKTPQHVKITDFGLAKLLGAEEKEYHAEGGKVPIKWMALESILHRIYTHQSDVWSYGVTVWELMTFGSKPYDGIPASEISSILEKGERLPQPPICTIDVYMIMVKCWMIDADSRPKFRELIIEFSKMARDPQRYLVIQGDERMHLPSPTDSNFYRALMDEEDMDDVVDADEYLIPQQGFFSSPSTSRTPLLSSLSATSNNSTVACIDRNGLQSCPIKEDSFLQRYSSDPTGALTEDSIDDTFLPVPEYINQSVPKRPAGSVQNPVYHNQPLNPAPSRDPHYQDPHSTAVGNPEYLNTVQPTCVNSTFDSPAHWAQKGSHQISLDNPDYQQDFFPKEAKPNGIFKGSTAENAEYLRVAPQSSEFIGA
Sequence of EGFR T790M (P00533 25-1210 T790M): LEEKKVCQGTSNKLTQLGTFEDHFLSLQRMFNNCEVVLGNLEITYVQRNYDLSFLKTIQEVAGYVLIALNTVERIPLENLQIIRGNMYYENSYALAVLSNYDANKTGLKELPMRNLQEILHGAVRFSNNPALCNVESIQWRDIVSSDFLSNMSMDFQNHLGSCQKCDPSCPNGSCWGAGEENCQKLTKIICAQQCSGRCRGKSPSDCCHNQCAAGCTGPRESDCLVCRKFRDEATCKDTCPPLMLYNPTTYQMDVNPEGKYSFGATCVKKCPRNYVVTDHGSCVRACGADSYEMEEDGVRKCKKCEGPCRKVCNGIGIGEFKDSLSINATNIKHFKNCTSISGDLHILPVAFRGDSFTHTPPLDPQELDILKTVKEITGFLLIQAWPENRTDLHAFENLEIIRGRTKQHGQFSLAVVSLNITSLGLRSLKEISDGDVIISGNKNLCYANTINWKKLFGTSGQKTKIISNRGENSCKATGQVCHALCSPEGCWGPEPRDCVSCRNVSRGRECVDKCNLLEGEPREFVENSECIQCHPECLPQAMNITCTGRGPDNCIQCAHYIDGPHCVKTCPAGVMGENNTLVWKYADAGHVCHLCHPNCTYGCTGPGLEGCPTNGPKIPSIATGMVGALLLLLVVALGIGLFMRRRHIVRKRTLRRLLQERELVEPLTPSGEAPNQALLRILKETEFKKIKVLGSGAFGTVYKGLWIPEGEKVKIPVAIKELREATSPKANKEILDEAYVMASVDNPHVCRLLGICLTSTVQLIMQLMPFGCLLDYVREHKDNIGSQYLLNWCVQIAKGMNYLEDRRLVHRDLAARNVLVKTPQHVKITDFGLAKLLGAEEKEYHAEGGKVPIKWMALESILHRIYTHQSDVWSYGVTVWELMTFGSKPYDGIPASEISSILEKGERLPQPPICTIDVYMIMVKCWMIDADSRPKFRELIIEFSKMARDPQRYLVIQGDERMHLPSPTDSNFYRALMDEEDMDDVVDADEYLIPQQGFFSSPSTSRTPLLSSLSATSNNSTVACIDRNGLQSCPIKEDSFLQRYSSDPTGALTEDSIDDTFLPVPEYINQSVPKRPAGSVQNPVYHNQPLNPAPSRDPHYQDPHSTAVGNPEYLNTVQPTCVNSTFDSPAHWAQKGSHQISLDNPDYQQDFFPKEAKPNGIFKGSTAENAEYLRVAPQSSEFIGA
Sequence of EGFR L858R (P00533 25-1210 L858R): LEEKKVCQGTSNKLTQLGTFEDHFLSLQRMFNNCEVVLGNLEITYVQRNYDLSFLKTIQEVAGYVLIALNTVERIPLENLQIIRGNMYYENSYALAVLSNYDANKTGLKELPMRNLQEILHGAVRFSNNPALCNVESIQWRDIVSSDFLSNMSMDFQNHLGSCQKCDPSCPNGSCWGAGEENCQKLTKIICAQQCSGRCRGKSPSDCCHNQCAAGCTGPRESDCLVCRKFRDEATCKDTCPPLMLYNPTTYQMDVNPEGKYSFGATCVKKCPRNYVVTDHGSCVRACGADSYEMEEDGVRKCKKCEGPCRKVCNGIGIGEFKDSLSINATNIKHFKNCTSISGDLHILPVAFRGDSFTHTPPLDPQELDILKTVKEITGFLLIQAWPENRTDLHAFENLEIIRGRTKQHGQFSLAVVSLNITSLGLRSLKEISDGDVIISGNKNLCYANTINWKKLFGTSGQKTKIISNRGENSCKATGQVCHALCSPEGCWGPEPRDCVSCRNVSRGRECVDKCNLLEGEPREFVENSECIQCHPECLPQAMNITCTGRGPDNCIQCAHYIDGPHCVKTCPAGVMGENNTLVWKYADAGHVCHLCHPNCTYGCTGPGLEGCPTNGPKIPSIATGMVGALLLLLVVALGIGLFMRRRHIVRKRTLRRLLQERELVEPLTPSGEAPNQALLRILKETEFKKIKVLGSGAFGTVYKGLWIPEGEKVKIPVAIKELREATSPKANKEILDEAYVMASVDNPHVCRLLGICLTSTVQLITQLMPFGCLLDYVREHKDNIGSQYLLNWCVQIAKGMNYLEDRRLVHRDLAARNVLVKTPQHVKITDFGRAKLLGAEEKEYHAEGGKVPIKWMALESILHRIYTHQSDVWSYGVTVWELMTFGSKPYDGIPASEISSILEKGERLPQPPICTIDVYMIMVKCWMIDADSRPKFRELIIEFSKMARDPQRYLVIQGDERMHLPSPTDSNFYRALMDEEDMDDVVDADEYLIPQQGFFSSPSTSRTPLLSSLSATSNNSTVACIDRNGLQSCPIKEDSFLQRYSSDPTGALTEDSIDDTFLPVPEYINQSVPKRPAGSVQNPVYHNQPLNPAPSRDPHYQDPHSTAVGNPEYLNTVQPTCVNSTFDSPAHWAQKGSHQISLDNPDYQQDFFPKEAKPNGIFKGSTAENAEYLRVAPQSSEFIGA
Sequence of EGFR (d746-750) (P00533 other isoform, or with tags, fused parts or gaps del 1-668/del 746-750 limits assumed): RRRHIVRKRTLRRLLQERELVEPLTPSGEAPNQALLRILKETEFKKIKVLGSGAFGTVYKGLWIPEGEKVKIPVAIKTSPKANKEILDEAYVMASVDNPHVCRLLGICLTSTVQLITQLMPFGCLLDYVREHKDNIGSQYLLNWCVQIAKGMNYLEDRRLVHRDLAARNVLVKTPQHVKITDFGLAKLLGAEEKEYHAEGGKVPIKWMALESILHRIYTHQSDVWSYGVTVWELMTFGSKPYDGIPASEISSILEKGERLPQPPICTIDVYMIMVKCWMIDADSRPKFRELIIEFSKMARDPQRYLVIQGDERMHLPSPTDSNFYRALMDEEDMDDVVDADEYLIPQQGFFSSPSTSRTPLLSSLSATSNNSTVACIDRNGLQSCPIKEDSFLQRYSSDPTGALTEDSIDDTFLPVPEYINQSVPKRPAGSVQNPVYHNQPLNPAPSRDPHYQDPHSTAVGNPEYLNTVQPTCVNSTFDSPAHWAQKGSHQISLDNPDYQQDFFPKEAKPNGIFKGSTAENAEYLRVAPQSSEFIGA

IC50 ([1]; Table 10, unit inferred) [nM] | IC50 ([2]; Table 4, unit inferred) [nM] | Selectivity (WT/T790M) ([2]; Table 4) | IC50 ([3]; Table 4, unit inferred) [nM] | IC50 ([4]; Table 10, unit inferred) [nM] | Compound | Selectivity (A431/H1975) ([4]; Table 10) | further results
3600 |  |  |  | 266 | C=CC(=O)Nc1cccc(Nc2nc(Nc3ccc(OC)c4c3CCN(C(C)=O)C4)ncc2C(F)(F)F)c1 [Compound 35, N-(3-((2-((2-acetyl-8-methoxy-1,2,3,4-tetrahydroisoquinoline-5-yl)amino)-5-(trifluoromethyl)pyrimidin-4-yl)amino)phenyl)acrylamide] | 13.5 | 
 | 9.9 | 129.7 | 1280 |  | C=CC(=O)Nc1cccc(Nc2nc(Nc3cccc4c3CCN(C(C)=O)C4)ncc2C(F)(F)F)c1 [Compound 37, N-(3-((2-((2-acetyl-1,2,3,4-tetrahydroisoquinoline-5-yl)amino)-5-(trifluoromethyl)pyrimidin-4-yl)amino)phenyl)acrylamide] |  | 

Second part, the molecule before the results:

Compound | IC50 ([1]; Table 10, unit inferred) [nM] | IC50 ([2]; Table 4, unit inferred) [nM] | Selectivity (WT/T790M) ([2]; Table 4) | IC50 ([3]; Table 4, unit inferred) [nM] | IC50 ([4]; Table 10, unit inferred) [nM] | Selectivity (A431/H1975) ([4]; Table 10) | further results
C=CC(=O)Nc1cccc(Nc2nc(Nc3ccc(OCCCS(C)(=O)=O)cc3OC)ncc2C(F)(F)F)c1 [Compound 43, N-(3-((2-((2-methoxy-4-(3-(methylsulfonyl)propoxy)phenyl)amino)-5-(trifluoromethyl)pyrimidin-4-yl)amino)phenyl)acrylamide] | 2640 | 3.6 | 44.2 | 159 | 430 | 6.1 | 
C=CC(=O)Nc1cccc(Nc2nc(Nc3ccc(N4CC5CCC(C4)N5C(C)=O)cc3OC)ncc2C(F)(F)F)c1 [Compound 7, N-(3-((2-((4-(8-acetyl-3,8-diazabicyclo[3.2.1]octan-3-yl)-2-methoxyphenyl)amino)-5-(trifluoromethyl)pyrimidin-4-yl)amino)phenyl)acrylamide] |  | 6.2 | 53.5 | 332 |  |  | 
C=CC(=O)Nc1cccc(Nc2nc(Nc3cc4c(cc3OC)CN(C(C)=O)CC4)ncc2C(F)(F)F)c1 [Compound 11, N-(3-((2-((2-acetyl-7-methoxy-1,2,3,4-tetrahydroisoquinolin-6-yl)amino)-5-(trifluoromethyl)pyrimidin-4-yl)amino)phenyl)acrylamide] |  |  |  |  |  |  | IC50 ([1]; Table 9): 1770 nM; IC50 ([2]; Table 2): 13 nM; Selectivity (WT/T790M) ([2]; Table 2): 49.2; IC50 ([3]; Table 2): 640 nM; IC50 ([4]; Table 9): 179 nM; Selectivity (A431/H1975) ([4]; Table 9): 9.9
C=CC(=O)Nc1cccc(Nc2nc(Nc3ccc(C4CCNC(=O)C4)cc3OC)ncc2C(F)(F)F)c1 (stereo not drawn) [Compound 22, N-(3-((2-((2-methoxy-4-(2-oxopiperidin-4-yl)phenyl)amino)-5-(trifluoromethyl)pyrimidin-4-yl)amino)phenyl)acrylamide] |  |  |  |  |  |  | IC50 ([2]; Table 7): 2.7 nM; Selectivity (WT/T790M) ([2]; Table 7): 67.2; IC50 ([5]; Km ATP): 28.2 nM; Selectivity WT/L858R ([5]; ratio of IC50): 6.4; IC50 ([6]; Km ATP): 28.3 nM; Selectivity WT/d746-750 ([6]; ratio of IC50): 6.4; IC50 ([3]; Table 7): 181 nM; IC50 ([7]; Km ATP): 4.06 nM; Selectivity WT/T790M-L858R ([7]; ratio of IC50): 44.6
C=CC(=O)Nc1cccc(Nc2nc(Nc3ccc(C4CCN(C(=O)CCF)CC4)cc3OC)ncc2C(F)(F)F)c1 [Compound 25, N-(3-((2-((4-(1-(3-fluoropropionyl)piperidin-4-yl)-2-methoxyphenyl)amino)-5-(trifluoromethyl)pyrimidin-4-yl)amino)phenyl)acrylamide] | 3890 | 7.1 | 96.2 | 683 | 308 | 12.6 | 
